Laboratory results reported in BindingDB's records for doi:10.1021/acsmedchemlett.0c00340 (California Institute of Technology, 2020).

Experiment: Positive allosteric modulator activity at human alpha1beta2S GABA-A receptor expressed in Xenopus laevis oocytes assessed as change in GABA EC50 at 40 uM by two electrode voltage-clamp assay

Row | EC50 [µM] | SMILES
1 | 13 | CN1CC[C@]2(O)c3ccccc3N(C)[C@]12c1ccccc1
2 | 9 | CN1CC[C@]2(O)c3cc(I)ccc3N(C)[C@]12c1ccccc1
3 | 16 | CN1CC[C@]2(O)c3cc(Br)ccc3N(C)[C@]12c1ccccc1
